# In patent US20240424175A1, “ANTICOAGULANT COMPOUNDS COMPRISING CHELATING AGENTS AND CATIONIC ANTI-COAGULATION ENHANCERS AND METHODS AND DEVICES FOR THEIR USE” (Elixir Medical Corporation, priority 2021, published 2024):
# Experiments:
# [1] = test system: Human Aortic SMC (HAoSMC, ATCC, PCS-100-012); assay: HAoSMC cell proliferation assay (CellTiter Aqueous, 96-well); assay type: cell-based; conditions: drug alone, various concentrations; 72 hours; FIGS. 1D-1E
# Method: Cell proliferation assay was done in 96-well format. Low passage cells were trypsinized and seeded in 96 well plates at a density of ˜4000 cells/well. The cells are allowed to attach overnight in a CO2 incubator. Next day, the medium was removed and replaced with fresh complete medium containing various concentrations of the test compounds. The final concentration of vehicle (DMSO) in the test medium was 0.1%. After adding test compounds, the cells were incubated for 72 hours. Following this period, the medium was removed and then added fresh medium (100 μl) containing CellTiter Aqueous (1× concentration final) to the wells and incubated for 2 hours in the CO2 incubator. At the end of incubation measured fluorescence with a plate-reader. Controlled incubations with untreated cells and blank incubations containing only medium were included and tested similarly. Based on the cell viability assay the percentage inhibition of the cell proliferation was determined at the different concentrations of the drug tested.
# Following the cell proliferation assay as indicated earlier, the percent cell proliferation inhibition was determined, and the assay results plotted to determine the IC50.
# citrated sheep blood [2] = assay: Activated clotting time (ACT) in calcium-reconstituted citrated sheep blood, Hemochron Response (Example 2); assay type: biochemical; conditions: individual drug at 0.6 ng/mg; FIG. 2C
# Method: The activated clotting time (ACT) evaluation of anticoagulants was performed in calcium-reconstituted sheep blood and recorded employing the Hemochron® Response device. […] A target amount of drug solution was then added into the test tube. […] The tube was gently shaken before being inserted into the Hemochron Response detector. The ACT read out was recorded and reported. The ACT of the control blood in the absence of any drug as first determined to establish a baseline. Then ACT was determined in the presence of different concentrations of the drug as a single component. Selected drug combinations were then tested to evaluate for potential synergy in action between the two drugs.
# [3] = test system: porcine coronary artery model; assay: Fibrin score, histopathology of stented arteries in porcine coronary artery model (Examples 16, 17); assay type: in vivo; conditions: 14 mm stents, n = 3; score 0 to 3, smaller is better; bare metal control stent 1.02 ± 0.35
# Method: The drug eluting stent systems containing different anticoagulants prepared as described in Example 11 were evaluated at 3 hours, 6 hours, 1 day, 3 days, 6 days, 7 days, or 28 days following implantation in a porcine coronary artery model.
# After induction of anesthesia, the left or right femoral artery was accessed using standard techniques and an arterial sheath was introduced and advanced into the artery. Vessel angiography was performed under fluoroscopic guidance, a 7 Fr, guide catheter was inserted through the sheath and advanced to the appropriate location where intracoronary nitroglycerin was administered. An appropriate implantation segment of coronary artery was randomly selected and a 0.014″ guidewire inserted. Quantitative Coronary Angiography (QCA) was performed to document the results. The appropriately size stent was advanced to the deployment site. The balloon was inflated at a steady rate to a pressure sufficient to achieve a balloon to artery ratio of approximately 1.1 to 1.0.
# Stented portions of coronary arteries were embedded in methyl methacrylate (MMA), then divided into a target of at least three blocks of approximately similar lengths for histology evaluation. Quantitative histopathological evaluation of stented artery sections was then performed and scored as indicated. For Fibrin formation, scores ranged from 0 to 3, with a score of 0 indicating absent or rare minimal spotting around struts of the stent, a score of 1 indicating the presence of fibrin in small amounts localized only around the struts, a score of 2 indicating the moderately abundant or denser presence of fibrin around and extending beyond the struts, and a score of 3 indicating the presence of abundant and dense fibrin and/or bridging of the fibrin between the struts. The mean score was calculated and reported. The mean of each section was then averaged to provide a mean fibrin score per stent. The smaller the fibrin score, the better efficacy.
# [4] = test system: porcine coronary artery model; assay: Late lumen loss (LLL) by follow up angiography in porcine coronary artery model (Example 16); assay type: in vivo; conditions: 14 mm stents, n = 3; smaller is better; bare metal control stent 0.17 ± 0.22
# [5] = In vivo drug release, drug remaining on stent and tissue drug concentration of SS7-SS17 stents (Tables 12A-12D); conditions: 28 D following implantation
# Text: The stented artery was cut longitudinally with surgical scissors. The stents were separated from the tissue.
# [6] = test system: Tissue factor generated antiplatelet; conditions: cited from earlier work; for IC50 for Tissue factor generated antiplatelet: expressed in ng/mg
# citrated sheep blood [7] = assay: Activated clotting time (ACT) of EDTA or other anti-coagulant compounds in citrated sheep blood (Example 4); assay type: biochemical
# Method: The activated clotting time (ACT) evaluation of anticoagulants was performed in Calcium-reconstituted sheep blood and recorded employing the Hemochron® Response device. […] A target amount of EDTA or other anti-coagulant compounds solution was then added into the test tube. […] The tube was gently shaken before being inserted into the Hemochron Response detector. The ACT read out was recorded and reported.
# fresh pig blood = assay: Activated clotting time (ACT) of EDTA or analogues in fresh pig blood (Example 3); assay type: biochemical; conditions: for Clotting time: blood control 154
# Method: The ACT measurements were made in fresh pig blood. 1.0 ml of fresh pig blood was added to a test tube containing an activator (Hemochron@Celite@ ACT tubes, Lot F8FTE026 from Accriva Diagnostics, Inc.). A target amount of drug solution was then added into the test tube. The test tube was gently swirled so that the blood and drug was well-mixed. 0.1 ml of 0.3M calcium chloride was then added. The tube was gently shaken before being inserted into the Hemochron Response detector. The ACT read out was recorded and reported. The ACT of the control blood in the absence of any drug as first determined to establish a baseline.
# [8] = pH of 1 mg/ml EDTA or analogue in water or phosphate buffer; assay type: physicochemical
# [9] = final concentration 67 ng/mg (66.7 μg/ml)
# [10] = final concentration 100 ng/mg (100 μg/ml)
# [11] = final concentration […] (133.3 μg/ml)
# [12] = final concentration […] (166.7 μg/ml)
# [13] = final drug concentration 200 ng/mg
# [14] = 1 mg/ml in 0.01M pH 7.4 phosphate buffer, 21.8-22.3 °C
# [15] = final drug concentration 500 ng/mg
# [16] = final drug concentration 75 ng/mg
# [17] = final drug concentration 100 ng/mg
# [18] = final drug concentration 150 ng/mg
# [19] = final drug concentration 300 ng/mg
# [20] = final drug concentration 250 ng/mg
molecule,measurement,setting,value
COc1ccc(-n2nc(C(N)=O)c3c2C(=O)N(c2ccc(N4CCCCC4=O)cc2)CC3)cc1 [Apixaban],inhibition of HAoSMC proliferation,[1],small to no inhibition
same,ACT,citrated sheep blood [2],522
CC1CNc2c(cccc2S(=O)(=O)N[C@@H](CCCNC(=N)N)C(=O)N2CC[C@@H](C)C[C@@H]2C(=O)O)C1 (stereo partly shown) [Argatroban],inhibition of HAoSMC proliferation,[1],small to no inhibition
same,ACT,citrated sheep blood [2],301
same,Fibrin score at day 7,[3],not effective at inhibiting fibrin formation
same,LLL at day 7,[4],not effective at inhibiting smooth muscle cell proliferation
same,"Tissue drug concentration (ng/mg) in the stented segment tissue, Argatroban",[5],about 1.69 ng/mg
same,IC50,[6],79 nM
same,IC50 for Tissue factor generated antiplatelet,[6],0.04 ng/mg
CCCCCCCCCCCCCC[N+](C)(C)Cc1ccccc1.[Cl-] [Benzyldimethyltetradecylammonium chloride],Clotting time,citrated sheep blood [7]; [9],316 s
same,Increase in clotting time compared to control,citrated sheep blood [7]; [9],114 s
same,Clotting time,citrated sheep blood [7]; [10],421 s
same,Increase in clotting time compared to control,citrated sheep blood [7]; [10],219 s
same,Clotting time,citrated sheep blood [7]; [11],983 s
same,Increase in clotting time compared to control,citrated sheep blood [7]; [11],781 s
same,Clotting time,citrated sheep blood [7]; [12],1370 s
same,Increase in clotting time compared to control,citrated sheep blood [7]; [12],1168 s
"O=C(O)C(S)C(S)C(=O)O (stereo not shown) [Dimercaptosuccinic acid(DMSA), dimercaptosuccinic acid]",Increase in clotting time compared to control,fresh pig blood; [13],-3 s
same,Clotting time,fresh pig blood; [13],151 s
O=C([O-])CN(CCN(CC(=O)O)CC(=O)O)CC(=O)[O-].[K+].[K+] [EDTA dipotasium],pH,[8]; [14],6.93
same,pH,"[8]; 1 mg/ml in d-water, 21.8-22 °C",6.25
"CC(=O)OCOC(=O)CN(CCN(CC(=O)OCOC(C)=O)CC(=O)OCOC(C)=O)CC(=O)OCOC(C)=O [EDTA tetra acetoxymethyl ester, tetra acetoxymethyl ester EDTA]",Increase in clotting time compared to control,fresh pig blood; [15],4 s
same,Clotting time,fresh pig blood; [15],158 s
"O=C([O-])CN(CCN(CC(=O)[O-])CC(=O)O)CC(=O)[O-].[Na+].[Na+].[Na+] [EDTA tri sodium, trisodium edetate]",pH,[8]; [14],7.77
same,pH,"[8]; 1 mg/ml in d-water, 21.8-22 °C",9.21
"O=C(O)CN(CCN(CC(=O)O)CC(=O)O)CC(=O)O [EDTA, ethylenediaminetetraacetic acid]",Increase in clotting time compared to control,fresh pig blood; [16],25 s
same,Clotting time,fresh pig blood; [16],179 s
same,Increase in clotting time compared to control,fresh pig blood; [17],93 s
same,Clotting time,fresh pig blood; [17],247 s
same,Increase in clotting time compared to control,fresh pig blood; [18],121 s
same,Clotting time,fresh pig blood; [18],275 s
same,Increase in clotting time compared to control,fresh pig blood; [13],>346 s
"O=C([O-])CN(CCN(CC(=O)[O-])CC(=O)O)CC(=O)O.[Na+].[Na+] [EDTA•2Na•2H2O, disodium edetate]",Increase in clotting time compared to control,fresh pig blood; [17],37 s
same,Clotting time,fresh pig blood; [17],191 s
same,Increase in clotting time compared to control,fresh pig blood; [13],110 s
same,Clotting time,fresh pig blood; [13],264 s
same,Increase in clotting time compared to control,fresh pig blood; [19],220 s
same,Clotting time,fresh pig blood; [19],374 s
same,Clotting time (sec),"fresh pig blood; final drug concentration 300 ng/mg, blood control 154, listed as EDTA disodium salt",same trend
same,pH,[8]; [14],6.92
same,pH,"[8]; 1 mg/ml in d-water, 21.8-22 °C",6.42
"O=C([O-])CN(CCN(CC(=O)[O-])CC(=O)[O-])CC(=O)[O-].[Na+].[Na+].[Na+].[Na+] [EDTA•4Na•xH2O, tetrasodium edetate]",Increase in clotting time compared to control,fresh pig blood; [17],50 s
same,Clotting time,fresh pig blood; [17],204 s
same,Increase in clotting time compared to control,fresh pig blood; [13],121 s
same,Clotting time,fresh pig blood; [13],275 s
same,Increase in clotting time compared to control,fresh pig blood; [20],175 s
same,Clotting time,fresh pig blood; [20],329 s
same,Increase in clotting time compared to control,fresh pig blood; [19],>346 s
same,Clotting time,fresh pig blood; [19],>500 s
same,Clotting time (sec),"fresh pig blood; final drug concentration 300 ng/mg, blood control 154, listed as EDTA tetra sodium salt",same trend
same,pH,[8]; [14],8.27
same,pH,"[8]; 1 mg/ml in d-water, 21.8-22 °C",9.61
O=C(NC[C@H]1CN(c2ccc(N3CCOCC3=O)cc2)C(=O)O1)c1ccc(Cl)s1 [Rivaroxaban],Fibrin score at day 7,[3],effective at inhibiting fibrin formation
same,LLL at day 7,[4],not effective at inhibiting smooth muscle cell proliferation
same,IC50,[6],312 nM
same,IC50 for Tissue factor generated antiplatelet,[6],0.136 ng/mg
Dalteparin,Fibrin score at day 7,[3],not effective at inhibiting fibrin formation
same,LLL at day 7,[4],not effective at inhibiting smooth muscle cell proliferation
